“And” between values parts separate entries of the source, which are not always exact repeats. Identical values can stand only once. Inconclusive results and toxic doses are left out.
Test system: CD2F1 mice, L1210 leukemia ip, survival T/C
Assay: NCI In Vivo Anticancer Drug Screen. Data for tumor model L1210 Leukemia (intraperitoneal) in CD2F1 (CDF1) mice
Conditions: higher = longer survival
In short: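 In this screen, transplantable tumors were grown in mice given either the compound or its vehicle. Results were expressed as the treated measurement relative to the control measurement.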

In the case of `CN(C)/N=N/c1nc[nH]c1C(N)=O`, the T/C (endpoint: mean survival time, dose: 100.0 mg/kg/injection, schedule: Q03DX003 (ip), vehicle: saline) is reported as 120 % of control, the T/C (endpoint: mean survival time, dose: 100.0 mg/kg/injection, schedule: Q03HX016 (ip), vehicle: steriod suspending solution) is reported as 122 % of control and the T/C (endpoint: mean survival time, dose: 100.0 mg/kg/injection, schedule: Q03HX016 (oral), vehicle: steriod suspending solution) is reported as 116 % of control. For the same molecule, the T/C (endpoint: mean survival time, dose: 100.0 mg/kg/injection, schedule: Q04DX003 (ip), vehicle: Klucel (hydroxypropylcellulose) (HPC)) was 114 % of control, the T/C (endpoint: mean survival time, dose: 100.0 mg/kg/injection, schedule: Q04DX003 (ip), vehicle: other) was 114 % of control and 120 % of control and the T/C (endpoint: mean survival time, dose: 100.0 mg/kg/injection, schedule: Q04DX003 (ip), vehicle: saline) was 108 % of control. The T/C (endpoint: mean survival time, dose: 100.0 mg/kg/injection, schedule: Q04DX003 (ip), vehicle: steriod suspending solution) was 116 % of control, the T/C (endpoint: mean survival time, dose: 100.0 mg/kg/injection, schedule: Q04DX003 (oral), vehicle: steriod suspending solution) was 116 % of control and the T/C (endpoint: mean survival time, dose: 100.0 mg/kg/injection, schedule: Q08DX002 (ip), vehicle: steriod suspending solution) was 117 % of control. For the same molecule, the T/C (endpoint: mean survival time, dose: 100.0 mg/kg/injection, schedule: Q08DX002 (oral), vehicle: steriod suspending solution) was 115 % of control, the T/C (endpoint: mean survival time, dose: 150.0 mg/kg/injection, schedule: Q01DX001 (oral), vehicle: saline) was 101 % of control and the T/C (endpoint: mean survival time, dose: 150.0 mg/kg/injection, schedule: Q01DX009 (ip), vehicle: Klucel (hydroxypropylcellulose) (HPC)) was 172 % of control. The T/C (endpoint: mean survival time, dose: 180.0 mg/kg/injection, schedule: Q04DX003 (ip), vehicle: saline) was 114 % of control and 108 % of control, the T/C (endpoint: mean survival time, dose: 182.0 mg/kg/injection, schedule: Q01DX009 (ip), vehicle: Klucel (hydroxypropylcellulose) (HPC)) was 120 % of control and the T/C (endpoint: mean survival time, dose: 200.0 mg/kg/injection, schedule: Q01DX001 (ip), vehicle: distilled water + Tween-80) was 120 % of control. For the same molecule, the T/C (endpoint: mean survival time, dose: 200.0 mg/kg/injection, schedule: Q01DX007 (ip), vehicle: saline) was 159 % of control, the T/C (endpoint: mean survival time, dose: 200.0 mg/kg/injection, schedule: Q01DX009 (ip), vehicle: DMSO) was 174 % of control and the T/C (endpoint: mean survival time, dose: 200.0 mg/kg/injection, schedule: Q01DX009 (ip), vehicle: saline) was 151 % of control. The T/C (endpoint: mean survival time, dose: 200.0 mg/kg/injection, schedule: Q01DX009 (ip), vehicle: steriod suspending solution) was 157 % of control, the T/C (endpoint: mean survival time, dose: 200.0 mg/kg/injection, schedule: Q01DX009 (ip), vehicle: water) was 118 % of control and the T/C (endpoint: mean survival time, dose: 200.0 mg/kg/injection, schedule: Q01DX009 (oral), vehicle: steriod suspending solution) was 169 % of control. For the same molecule, the T/C (endpoint: mean survival time, dose: 200.0 mg/kg/injection, schedule: Q04DX003 (ip), vehicle: Klucel (hydroxypropylcellulose) (HPC)) was 123 % of control, the T/C (endpoint: mean survival time, dose: 200.0 mg/kg/injection, schedule: Q04DX003 (ip), vehicle: steriod suspending solution) was 116 % of control and the T/C (endpoint: mean survival time, dose: 200.0 mg/kg/injection, schedule: Q04DX003 (oral), vehicle: steriod suspending solution) was 122 % of control. The T/C (endpoint: mean survival time, dose: 200.0 mg/kg/injection, schedule: Q08DX002 (oral), vehicle: steriod suspending solution) was 118 % of control, the T/C (endpoint: mean survival time, dose: 300.0 mg/kg/injection, schedule: Q01DX001 (oral), vehicle: saline) was 113 % of control and the T/C (endpoint: mean survival time, dose: 364.0 mg/kg/injection, schedule: Q01DX009 (ip), vehicle: Klucel (hydroxypropylcellulose) (HPC)) was 63 % of control. For the same molecule, the T/C (endpoint: mean survival time, dose: 400.0 mg/kg/injection, schedule: Q01DX005 (ip), vehicle: other) was 113 % of control, the T/C (endpoint: mean survival time, dose: 400.0 mg/kg/injection, schedule: Q01DX009 (ip), vehicle: water) was 96 % of control and the T/C (endpoint: mean survival time, dose: 400.0 mg/kg/injection, schedule: Q01DX009 (oral), vehicle: steriod suspending solution) was 152 % of control. The T/C (endpoint: mean survival time, dose: 400.0 mg/kg/injection, schedule: Q08DX002 (ip), vehicle: steriod suspending solution) was 121 % of control, the T/C (endpoint: mean survival time, dose: 600.0 mg/kg/injection, schedule: Q01DX001 (oral), vehicle: saline) was 121 % of control and the T/C (endpoint: mean survival time, dose: 800.0 mg/kg/injection, schedule: Q08DX002 (ip), vehicle: steriod suspending solution) was 164 % of control. For the same molecule, the T/C (endpoint: mean survival time, dose: 800.0 mg/kg/injection, schedule: Q08DX002 (oral), vehicle: steriod suspending solution) was 123 % of control, the T/C (endpoint: median survival time, dose: 9.8 mg/kg/injection, schedule: Q03HX008 (ip), vehicle: Klucel (hydroxypropylcellulose) (HPC)) was 105 % of control and the T/C (endpoint: median survival time, dose: 22.2 mg/kg/injection, schedule: Q03HX008 (ip), vehicle: Klucel (hydroxypropylcellulose) (HPC)) was 114 % of control. The T/C (endpoint: median survival time, dose: 33.3 mg/kg/injection, schedule: Q03HX008 (ip), vehicle: Klucel (hydroxypropylcellulose) (HPC)) was 123 % of control, the T/C (endpoint: median survival time, dose: 48.0 mg/kg/injection, schedule: Q01DX005 (ip), vehicle: Klucel (hydroxypropylcellulose) (HPC)) was 115 % of control and the T/C (endpoint: median survival time, dose: 50.0 mg/kg/injection, schedule: Q02DX005 (ip), vehicle: Klucel (hydroxypropylcellulose) (HPC)) was 121 % of control. The T/C (endpoint: median survival time, dose: 72.0 mg/kg/injection, schedule: Q01DX005 (ip), vehicle: Klucel (hydroxypropylcellulose) (HPC)) was 123 % of control, the T/C (endpoint: median survival time, dose: 100.0 mg/kg/injection, schedule: Q02DX005 (ip), vehicle: Klucel (hydroxypropylcellulose) (HPC)) was 117 % of control and the T/C (endpoint: median survival time, dose: 108.0 mg/kg/injection, schedule: Q01DX005 (ip), vehicle: Klucel (hydroxypropylcellulose) (HPC)) was 124 % of control. The T/C (endpoint: median survival time, dose: 240.0 mg/kg/injection, schedule: Q01DX001 (ip), vehicle: Klucel (hydroxypropylcellulose) (HPC)) was 115 % of control, the T/C (endpoint: median survival time, dose: 600.0 mg/kg/injection, schedule: Q01DX001 (ip), vehicle: Klucel (hydroxypropylcellulose) (HPC)) was 121 % of control and the T/C (endpoint: median survival time, dose: 900.0 mg/kg/injection, schedule: Q01DX001 (ip), vehicle: Klucel (hydroxypropylcellulose) (HPC)) was 123 % of control.
